Patent publication US20240197635A1, “DISSOCIATING POLYMER MATRIX COMPOSITIONS OF FULVESTRANT AND METHODS OF THEIR MAKING AND USE” (VeraMorph LLC, priority 2021, published 2024)

Assay: In vitro dissolution of fulvestrant-loaded DPODs in simulated gastric fluid
Conditions: aqueous dissolution media
Method: The exact time of release can vary from 5 minutes to 120 minutes, with the capability to dissolve in less than 60 minutes and in less than 30 minutes and in less than 20 minutes depending on the exact pH. These parameters can be controlled by modifying the extent of drug loading and the composition of the DPOD.

- saturation concentration of fulvestrant: 2 µg/mL
SMILES: C[C@]12CC[C@@H]3c4ccc(O)cc4C[C@@H](CCCCCCCCC[S+]([O-])CCCC(F)(F)C(F)(F)F)[C@H]3[C@@H]1CC[C@@H]2O (stereo partly drawn) [fulvestrant, 7α-[9-[(4,4,5,5,5-Pentafluoropentyl)-sulfinyl]nonyl]estra-1,3,5(10)-triene-3,17β-diol]
